PubChem BioAssay AID1963981 (Molecular Pharmacology Branch, DTP, NCI, 2024)
Values joined by “and” are separate entries in the source; they are usually repeats but may differ in a detail not shown here. Equal values may be shown once.

Tested on: 354836-022-R-J1-PDC multicell spheroid viability
Experiment: Anticancer human tumor 354836-022-R-J1-PDC patient-derived head and neck squamous cell carcinoma cell line growth inhibition [PI3K]
Conditions: for viability, T/C: stronger effect = lower value
From the text: Combinatorial screen of targeted agents with the PI3K inhibitors inavolisib, alpelisib, duvelisib, and copanlisib in multi-cell type tumor spheroids
A high-throughput screen of multi-cell type tumor spheroids was designed to identify active combinations of targeted small molecules and PI3K pathway inhibitors. Complex spheroids include a stromal component modeled by human endothelial cells (HUVEC) and fibroblasts modeled by human mesenchymal stem cells (MSCs). The concentration ranges selected for each drug and investigational agent were based upon clinically achievable concentrations if the clinical Cmax of the agent was known.
Compounds. The drugs and investigational agents: inavolisib (NSC800729), alpelisib (NSC765974), duvelisib (NSC772469), copanlisib (NSC816437), ipatasertib (NSC767898), afuresertib (NSC778305), talazoparib (NSC767125), sapanisertib (NSC764658), selumetinib (NSC741078), tovorafenib (DAY101, NSC766906), vemurafenib (NSC761431), ravoxertinib (NSC781343), sotorasib (NSC818433), MRTX1133 (NSC 836407), abemaciclib (NSC 768073), palbociclib (NSC758247), venetoclax (NSC 766270), SY5609 (NSC837396), enzalutamide (NSC755605), and darolutamide (NSC825331), were obtained from the National Cancer Institute (NCI) Developmental Therapeutics Program Chemical Repository. The FDA-approved anticancer drug set is available from the NCI Developmental Therapeutics Program. […] The stock solutions were prepared in dimethyl sulfoxide (DMSO, Sigma-Aldrich, St. Louis, MO, cat. D2650) at 800-fold the tested concentration and stored at -70 degrees C prior to their use. All drugs and investigational agents were tested over a range starting from a high concentration at or near the clinical Cmax and decreasing in half-log increments. If the clinical Cmax for an agent had not been determined, the highest concentration tested was 10 microM.
Cell Culture. All cells were maintained in an incubator at 37 degrees C and 5% CO2 with 95% humidity. The PDC lines were cultured according to standard operating procedures established by the NCI PDMR (https://pdmr.cancer.gov/sops/default.htm). All PDCs were thawed and cultured in Matrigel-coated flasks prepared with a working solution of 1X Ham's F-12 nutrient mix, without supplementation (Invitrogen, Waltham, MA, cat. 11765054), 100 U/mL penicillin-streptomycin (Invitrogen, cat. 15140122), and 2.5% Matrigel (Corning Inc., Corning, NY, cat. 354248) for the first three passages. The 354836-022-R-J1-PDC, 475296-252-R-J1-PDC, and 997726-040-R-J2-PDC lines were cultured in 6A media, which includes advanced DMEM/F-12 (Thermo Fisher Scientific, cat. 12634028), 10 mM HEPES (Thermo Fisher Scientific, cat. 15630080), 1X GlutaMAX supplement (Thermo Fisher Scientific, cat. 35050061), 0.1 mg/mL primocin (InvivoGen, San Diego, CA, cat. ant-pm-2), 10% defined fetal bovine serum, heat inactivated (HyClone Laboratories Inc., Logan, UT, cat. SH30070.03HI), 50% L-WRN conditioned media (ATCC, cat. CRL-3276), 1.25 mM N-Acetyl-L-cysteine (Sigma-Aldrich, cat. A9165), 10 mM nicotinamide (Sigma-Aldrich, cat. N0636), 1X B-27 supplement (Thermo Fisher Scientific, cat. 17504044), 1X N-2 supplement (Thermo Fisher Scientific, cat. 17502048), and 10 microM Y-27632 dihydrochloride (Tocris Bioscience, Bristol, United Kingdom, cat. 1254). The 624824-186-R-J2-PDC line was cultured in 6C/Colon 1B media, which includes all 6A media components plus 50 ng/mL human EGF recombinant protein (Thermo Fisher Scientific, cat. PHG0311). […]

[1] = curve of first compound, second compound 0.0316 µM
[2] = curve of first compound, second compound 0.1 µM
[3] = curve of first compound, second compound 0.316 µM
[4] = curve of first compound, second compound 1 µM
[5] = second compound 0.0316 µM, first compound 0.000316 µM
[6] = second compound 0.0316 µM, first compound 0.001 µM
[7] = second compound 0.0316 µM, first compound 0.00316 µM
[8] = second compound 0.0316 µM, first compound 0.01 µM
[9] = second compound 0.0316 µM, first compound 0.0316 µM
[10] = second compound 0.0316 µM, first compound 0.1 µM
[11] = second compound 0.1 µM, first compound 0.000316 µM
[12] = second compound 0.1 µM, first compound 0.001 µM
[13] = second compound 0.1 µM, first compound 0.00316 µM
[14] = second compound 0.1 µM, first compound 0.01 µM
[15] = second compound 0.1 µM, first compound 0.0316 µM
[16] = second compound 0.1 µM, first compound 0.1 µM
[17] = second compound 0.316 µM, first compound 0.000316 µM
[18] = second compound 0.316 µM, first compound 0.001 µM
[19] = second compound 0.316 µM, first compound 0.00316 µM
[20] = second compound 0.316 µM, first compound 0.01 µM
[21] = second compound 0.316 µM, first compound 0.0316 µM
[22] = second compound 0.316 µM, first compound 0.1 µM
[23] = second compound 1 µM, first compound 0.000316 µM
[24] = second compound 1 µM, first compound 0.001 µM
[25] = second compound 1 µM, first compound 0.00316 µM
[26] = second compound 1 µM, first compound 0.01 µM
[27] = second compound 1 µM, first compound 0.0316 µM
[28] = second compound 1 µM, first compound 0.1 µM
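Note: spheroids exposed to agents for seven days before the viability read.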

Cn1ncnc1[C@H]1c2n[nH]c(=O)c3cc(F)cc(c23)N[C@@H]1c1ccc(F)cc1 + COc1c(OCCCN2CCOCC2)ccc2c3n(c(=NC(=O)c4cnc(N)nc4)nc12)CCN3
IC50 (curve of first compound, second compound 0.00316 µM): > 0.1 µM | IC50 (curve of first compound, second compound 0.01 µM): > 0.1 µM | IC50 [1]: > 0.1 µM | IC50 [2]: 0.0149 µM | IC50 [3]: < 0.000316 µM | IC50 [4]: < 0.000316 µM | viability, T/C (second compound 0.00316 µM, first compound 0.000316 µM): 98.6% | viability, T/C (second compound 0.00316 µM, first compound 0.001 µM): 102% | viability, T/C (second compound 0.00316 µM, first compound 0.00316 µM): 95.6% | viability, T/C (second compound 0.00316 µM, first compound 0.01 µM): 101% | viability, T/C (second compound 0.00316 µM, first compound 0.0316 µM): 98.2% | viability, T/C (second compound 0.00316 µM, first compound 0.1 µM): 88.5% | viability, T/C (second compound 0.01 µM, first compound 0.000316 µM): 93.8% | viability, T/C (second compound 0.01 µM, first compound 0.001 µM): 103% | viability, T/C (second compound 0.01 µM, first compound 0.00316 µM): 90.5% | viability, T/C (second compound 0.01 µM, first compound 0.01 µM): 93.1% | viability, T/C (second compound 0.01 µM, first compound 0.0316 µM): 95.3% | viability, T/C (second compound 0.01 µM, first compound 0.1 µM): 76.2% | viability, T/C [5]: 76% | viability, T/C [6]: 77.7% | viability, T/C [7]: 88% | viability, T/C [8]: 83.4% | viability, T/C [9]: 83.1% | viability, T/C [10]: 69.8% | viability, T/C [11]: 50% | viability, T/C [12]: 50.7% | viability, T/C [13]: 52% | viability, T/C [14]: 57.5% | viability, T/C [15]: 57.8% | viability, T/C [16]: 37% | viability, T/C [17]: 15.2% | viability, T/C [18]: 16.3% | viability, T/C [19]: 14.5% | viability, T/C [20]: 13.9% | viability, T/C [21]: 13.5% | viability, T/C [22]: 7.08% | viability, T/C [23]: 2.45% | viability, T/C [24]: 1.53% | viability, T/C [25]: 1.71% | viability, T/C [26]: 2.18% | viability, T/C [27]: 2.36% | viability, T/C [28]: 1.28%

C#Cc1c(F)ccc2cc(O)cc(-c3ncc4c(N5CC6CCC(C5)N6)nc(OCC56CCCN5CC(F)C6)nc4c3F)c12 (configuration not stated)
viability, T/C (compound 0.0316 µM): 101% [middle of 4 runs] | viability, T/C (compound 0.1 µM): 101% [middle of 4 runs] | viability, T/C (compound 1 µM): 87.7% [middle of 4 runs] | viability, T/C (compound 3.16 µM): 95.4% [middle of 4 runs] | viability, T/C (compound 10 µM): 90.5% [middle of 4 runs] | IC50 (curve of compound): > 10 µM

CC(C)n1nc(-c2ccc3oc(N)nc3c2)c2c(N)ncnc21
viability, T/C (compound 0.000316 µM): 92.8% [middle of 4 runs] | viability, T/C (compound 0.001 µM): 84.9% [middle of 4 runs] | viability, T/C (compound 0.00316 µM): 78.9% [middle of 4 runs] | viability, T/C (compound 0.01 µM): 52% [middle of 4 runs] | viability, T/C (compound 0.0316 µM): 28.9% [middle of 4 runs] | viability, T/C (compound 0.1 µM): 11.4% [middle of 4 runs] | IC50 (curve of compound): 0.00959 µM and 0.012 µM and 0.0118 µM

Cn1ncnc1[C@H]1c2n[nH]c(=O)c3cc(F)cc(c23)N[C@@H]1c1ccc(F)cc1 + CC(Nc1ncnc2nc[nH]c12)c1cc2cccc(Cl)c2c(=O)n1-c1ccccc1
IC50 [1]: > 0.1 µM | IC50 [2]: > 0.1 µM | IC50 [3]: > 0.1 µM | IC50 [4]: > 0.1 µM | IC50 (curve of first compound, second compound 3.16 µM): > 0.1 µM | IC50 (curve of first compound, second compound 10 µM): > 0.1 µM | viability, T/C [5]: 91.2% | viability, T/C [6]: 88.5% | viability, T/C [7]: 85.4% | viability, T/C [8]: 108% | viability, T/C [9]: 105% | viability, T/C [10]: 106% | viability, T/C [11]: 102% | viability, T/C [12]: 97.2% | viability, T/C [13]: 98.2% | viability, T/C [14]: 86.4% | viability, T/C [15]: 101% | viability, T/C [16]: 83.1% | viability, T/C [17]: 100% | viability, T/C [18]: 117% | viability, T/C [19]: 98.8% | viability, T/C [20]: 104% | viability, T/C [21]: 92.7% | viability, T/C [22]: 88.6% | viability, T/C [23]: 110% | viability, T/C [24]: 96.5% | viability, T/C [25]: 110% | viability, T/C [26]: 96.2% | viability, T/C [27]: 100% | viability, T/C [28]: 79.8% | viability, T/C (second compound 3.16 µM, first compound 0.000316 µM): 108% | viability, T/C (second compound 3.16 µM, first compound 0.001 µM): 107% | viability, T/C (second compound 3.16 µM, first compound 0.00316 µM): 92.1% | viability, T/C (second compound 3.16 µM, first compound 0.01 µM): 96.7% | viability, T/C (second compound 3.16 µM, first compound 0.0316 µM): 99.6% | viability, T/C (second compound 3.16 µM, first compound 0.1 µM): 73.4% | viability, T/C (second compound 10 µM, first compound 0.000316 µM): 94.7% | viability, T/C (second compound 10 µM, first compound 0.001 µM): 87.1% | viability, T/C (second compound 10 µM, first compound 0.00316 µM): 85.8% | viability, T/C (second compound 10 µM, first compound 0.01 µM): 93.3% | viability, T/C (second compound 10 µM, first compound 0.0316 µM): 89.3% | viability, T/C (second compound 10 µM, first compound 0.1 µM): 65.2%
